Test results reported in patent US10011573B2, “Human androgen receptor DNA-binding domain (DBD) compounds as therapeutics and methods for their use” (The University of British Columbia, priority 2014, dated 2018).
pIC50: −log10 of the molar value. Where two headings read alike, the source gives them in different places.

Columns and labels:
PSA = experiment: Prostate-specific antigen (PSA) assay, secreted PSA from the eGFP assay plates; assay type: cell-based, human
Procedure: 3. Prostate-specific antigen (PSA) assay: The evaluation of PSA levels secreted into the media was performed in parallel to the eGFP assay using the same plates. After cells were incubated for 3 days, 150 μl of the media was taken from each well, and added to 150 μl of PBS.

androgen receptor (AR) = target: T1, androgen receptor (AR) (Homo sapiens, UniProt P10275, T878A); experiment: eGFP cellular AR transcription assay (LNCaP eGFP cells, LN-ARR2PB-eGFP); details: for inhibition at 3 µM: LNCaP, read-out: % Inhibition (3 μM); for IC50: eGFP IC50 (μM); for pIC50: read-out: eGFP IC50
T1 sequence (P10275 1-920 T878A): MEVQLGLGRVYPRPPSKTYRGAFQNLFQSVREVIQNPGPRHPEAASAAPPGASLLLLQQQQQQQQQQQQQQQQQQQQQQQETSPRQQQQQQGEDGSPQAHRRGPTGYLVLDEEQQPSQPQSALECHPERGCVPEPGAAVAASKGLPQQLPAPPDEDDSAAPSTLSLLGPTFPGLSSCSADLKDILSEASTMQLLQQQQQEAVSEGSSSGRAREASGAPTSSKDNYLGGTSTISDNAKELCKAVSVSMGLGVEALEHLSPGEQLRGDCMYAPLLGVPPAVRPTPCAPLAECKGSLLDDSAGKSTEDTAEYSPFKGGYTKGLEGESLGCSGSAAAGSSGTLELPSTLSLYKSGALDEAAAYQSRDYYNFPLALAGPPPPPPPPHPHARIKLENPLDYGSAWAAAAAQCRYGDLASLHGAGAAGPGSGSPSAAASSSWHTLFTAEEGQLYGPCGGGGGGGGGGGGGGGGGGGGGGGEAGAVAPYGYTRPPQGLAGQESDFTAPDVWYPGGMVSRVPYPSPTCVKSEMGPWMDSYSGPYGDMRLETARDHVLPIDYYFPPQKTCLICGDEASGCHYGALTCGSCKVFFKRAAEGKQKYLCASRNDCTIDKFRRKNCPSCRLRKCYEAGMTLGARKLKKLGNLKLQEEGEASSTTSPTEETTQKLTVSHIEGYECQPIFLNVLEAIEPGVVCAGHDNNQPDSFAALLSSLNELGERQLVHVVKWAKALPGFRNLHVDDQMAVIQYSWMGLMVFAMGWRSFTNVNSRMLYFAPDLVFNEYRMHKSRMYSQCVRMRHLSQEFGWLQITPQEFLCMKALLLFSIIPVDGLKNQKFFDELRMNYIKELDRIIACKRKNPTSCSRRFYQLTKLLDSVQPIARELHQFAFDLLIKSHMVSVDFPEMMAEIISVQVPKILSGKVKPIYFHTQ

SMILES | inhibition at 3 µM (androgen receptor (AR)) [%] | IC50 (androgen receptor (AR); LNCaP eGFP cells) [µM] | pIC50 (PSA; Homo sapiens, Series 1) | IC50 (androgen receptor (AR); Series 1) [µM] | also measured
Nc1nc(-c2ccc3ccccc3c2)cs1 [Compound 14204] | 67.2 | 9.16 | – | – | pIC50 (PSA; Homo sapiens, secreted PSA): 4.97
Ic1ncn(-c2csc(N3CCOCC3)n2)c1I [Compound 14464, 4-(4-(4,5-diiodo-1H-imidazol-1-yl)thiazol-2-yl)morpholine] | – | – | 5.74 | 1.5 | –
Clc1ncn(-c2csc(N3CCOCC3)n2)c1Cl [Compound 14402, 4-(4-(4,5-dichloro-1H-imidazol-1-yl)thiazol-2-yl)morpholine] | – | – | 6.24 | 0.66 | –
COc1ccccc1-c1csc(N2CCOCC2)n1 [Compound 14257] | 118 | – | 6.08 | 0.22 | –
c1csc(-c2nc(-c3c[nH]c4ccccc34)cs2)c1 [Compound 14481] | 80.5 | – | 5.85 | 2.18 | –
Oc1cccc2ccc(N3CCOCC3)nc12 [Compound 14400] | 79 | 0.46 | – | – | pIC50 (PSA; Homo sapiens, secreted PSA): 6.42
c1ccc2cc(-c3cscn3)ccc2c1 [Compound 14193] | – | 1.3 | – | – | pIC50 (PSA; Homo sapiens, secreted PSA): 6.19
CCC1CN(c2nc3ccccc3s2)CCO1 (centres unmarked) [Compound 14392] | 55.5 | 7.07 | – | – | pIC50 (PSA; Homo sapiens, secreted PSA): 4.98
Cc1ccc2sc(N3CCOCC3)nc2c1C [Compound 14332] | 91.7 | 0.068 | – | – | pIC50 (PSA; Homo sapiens, secreted PSA): 7.24
c1cc(-c2csc(N3CCCCC3)n2)cs1 [Compound 14131] | 117 | – | 6.27 | 0.82 | –
Fc1ccc2sc(N3CCOCC3)nc2c1F [Compound 14409] | 86 | 0.36 | – | – | pIC50 (PSA; Homo sapiens, secreted PSA): 6.47
Fc1ccc(F)c(-c2csc(N3CCOCC3)n2)c1 [Compound 14262] | – | – | – | – | pIC50 (PSA; Series 1): 4.98; % Inhibition (3 μM) (androgen receptor (AR)): 96.6%
CNc1nc(-c2ccc3ccccc3c2)cs1 [Compound 14203] | 91.5 | 3.17 | – | – | pIC50 (PSA; Homo sapiens, secreted PSA): 5.41
CCc1sc(N2CCOCC2)nc1-c1ccccc1 [Compound 14285] | – | – | – | – | pIC50 (PSA; Series 1): 5.07; % Inhibition (3 μM) (androgen receptor (AR)): 52.34%; pIC50 (androgen receptor (AR)): 5.23
Brc1cn(-c2csc(N3CCOCC3)n2)cn1 [Compound 14447, 4-(4-(4-bromo-1H-imidazol-1-yl)thiazol-2-yl)morpholine] | – | – | 5.76 | 2.1 | –
Clc1cn(-c2csc(N3CCOCC3)n2)cn1 [Compound 14448, 4-(4-(4-chloro-1H-imidazol-1-yl)thiazol-2-yl)morpholine] | – | – | 6.14 | 0.96 | –
Brc1ccc2nc(N3CCOCC3)ccc2c1 [Compound 14452] | – | 0.11 | – | – | pIC50 (PSA; Homo sapiens, secreted PSA): 6.77
CCOC(=O)c1c(C)[nH]c(C(=O)N[C@@H]2CCCc3ccccc32)c1C [Compound 14002] | – | 11.8 | – | – | pIC50 (PSA; Homo sapiens, secreted PSA): 5.45
c1ccc2nc(N3CCOCC3)ccc2c1 [Compound 14401] | 76 | 0.85 | – | – | pIC50 (PSA; Homo sapiens, secreted PSA): 6.16
Clc1ccc(-c2csc(N3CCOCC3)n2)c(Cl)c1 [Compound 14263] | – | – | – | – | pIC50 (PSA; Series 1): 5.88; pIC50 (androgen receptor (AR)): 5.78

SMILES | inhibition at 3 µM (androgen receptor (AR)) [%] | IC50 (androgen receptor (AR); LNCaP eGFP cells) [µM] | pIC50 (PSA; Homo sapiens, Series 1) | IC50 (androgen receptor (AR); Series 1) [µM] | also measured
FC(F)(F)C1CN(c2nc(-c3ccccc3)cs2)CCO1 (centres unmarked) [Compound 14250] | – | – | – | – | pIC50 (PSA; Series 1): 6.80; pIC50 (androgen receptor (AR)): 5.79
Clc1c(Br)ncn1-c1csc(N2CCOCC2)n1 [Compound 14450, 4-(4-(4-bromo-5-chloro-1H-imidazol-1-yl)thiazol-2-yl)morpholine] | – | – | 5.89 | 1.3 | –
COc1c(-c2csc(N3CCOCC3)n2)ccc(F)c1F [Compound 14370] | 107 | – | 6.60 | 0.19 | anti-AR activity (AR transcriptional inhibition) in words (androgen receptor (AR); LNCaP (T877A AR)): improved activities
COc1cc(F)ccc1-c1csc(N2CCOCC2)n1 [Compound 14367] | 103 | – | 6.64 | 0.3 | –
O=[N+]([O-])c1cccc2ccc(N3CCOCC3)nc12 [Compound 14398] | – | 0.82 | – | – | pIC50 (PSA; Homo sapiens, secreted PSA): 6.07
Cc1[nH]c2ccccc2c1-c1csc(N2CCOCC2)n1 [Compound 14135] | 64 | – | 5.11 | 6.89 | –
Cc1ccc(C)c(-c2csc(N3CCOCC3)n2)c1 [Compound 14293] | – | – | 6.28 | 0.62 | –
c1ccc(-c2csc(-c3ccccn3)n2)cc1 [Compound 14130] | – | – | – | – | pIC50 (PSA; Series 1): 5.07; pIC50 (androgen receptor (AR)): 5.13
Fc1ccc(-c2csc(N3CCOCC3)n2)cc1 [Compound 14255] | 44.9 | – | 6.39 | 0.66 | –
Nc1ccccc1-c1csc(N2CCOCC2)n1 [Compound 14273] | 73.4 | – | 5.69 | 1.41 | –
Oc1c(-c2csc(N3CCOCC3)n2)ccc(F)c1F [Compound 14371] | 98.9 | – | 6.15 | 0.8 | –
Oc1cc(F)ccc1-c1csc(N2CCOCC2)n1 [Compound 14364] | – | – | – | – | pIC50 (PSA; Series 1): 6.09; % Inhibition (3 μM) (androgen receptor (AR)): 91.26%; pIC50 (androgen receptor (AR)): 5.91
Clc1ccc(-c2csc(N3CCOCC3)n2)cc1Cl [Compound 14266] | – | – | – | – | pIC50 (PSA; Series 1): 5.53; % Inhibition (3 μM) (androgen receptor (AR)): 82.19%; pIC50 (androgen receptor (AR)): 5.48
Oc1cccc(-c2ccc3ccccc3n2)c1 [Compound 14300] | – | 0.23 | – | – | pIC50 (PSA; Homo sapiens, secreted PSA): 5.98
N#Cc1cc(N2CCOCC2)nc2ccccc12 [Compound 14395] | 103 | 0.54 | – | – | pIC50 (PSA; Homo sapiens, secreted PSA): 6.27
N#Cc1ccc(-c2ccc(N3CCOCC3)s2)cc1 [Compound 14117] | 111 | – | 6.05 | 1.43 | –
Cc1scc(-c2csc(N3CCOCC3)n2)c1C [Compound 14408, 4-(4-(4,5-dimethylthiophen-3-yl)thiazol-2-yl)morpholine] | – | – | 6.37 | 0.42 | –
c1ccc(-c2ccc3ccccc3n2)cc1 [Compound 14390] | 80.2 | 2.6 | – | – | pIC50 (PSA; Homo sapiens, secreted PSA): 5.91
c1ccc(-c2csc(-c3ccncc3)n2)cc1 [Compound 14352] | – | – | – | – | pIC50 (PSA; Series 1): 6.20; pIC50 (androgen receptor (AR)): 5.92
Clc1ncn(-c2csc(N3CCOCC3)n2)c1I [Compound 14468, 4-(4-(4-chloro-5-iodo-1H-imidazol-1-yl)thiazol-2-yl)morpholine] | – | – | 5.40 | 2.44 | –

SMILES | inhibition at 3 µM (androgen receptor (AR)) [%] | IC50 (androgen receptor (AR); LNCaP eGFP cells) [µM] | pIC50 (PSA; Homo sapiens, Series 1) | IC50 (androgen receptor (AR); Series 1) [µM] | also measured
Cc1sc(CO)c(-c2csc(N3CCOCC3)n2)c1C [Compound 14466] | – | – | – | 0.4 | –
O=[N+]([O-])c1ccc2nc(N3CCOCC3)ccc2c1 [Compound 14454] | 0 | – | – | – | –
CS(=O)(=O)Nc1ccc(-c2csc(N3CCOCC3)n2)cc1 [Compound 14276] | – | – | – | – | % Inhibition (3 μM) (androgen receptor (AR)): 25.98%
OCc1sc(N2CCOCC2)nc1-c1ccccc1 [Compound 14274] | – | – | – | – | % Inhibition (3 μM) (androgen receptor (AR)): 5.04%
Cc1ccccc1CN1C(=O)NC2C=CC=CC21 (centres unmarked) [Compound 14065] | – | 10 | – | – | –
Nc1ccc2nc(-c3cccc(O)c3)sc2c1 [Compound 14387] | 109 | 14.8 | – | – | –
Cc1sccc1-c1csc(N2CCOCC2)n1 [Compound 14407] | – | – | – | – | % Inhibition (3 μM) (androgen receptor (AR)): 38.00%
Nc1nc(-c2ccc3c(c2)CCCC3)cs1 [Compound 14198] | 54.4 | 5.51 | – | – | –
O=[N+]([O-])c1ccc(-c2csc(N3CCOCC3)n2)cc1 [Compound 14254] | 3.37 | – | – | 15.8 | –
CCc1ccc(-c2csc(N3CCOCC3)n2)cc1 [Compound 14259] | – | – | – | – | % Inhibition (3 μM) (androgen receptor (AR)): 26.26%
NC(=S)N/N=C/c1cccc2ccccc12 [Compound 14164] | 86.8 | 3.04 | – | – | –
FC(F)(F)c1cccc(-c2csc(-c3cnccn3)n2)c1 [Compound 14486] | – | – | – | – | % Inhibition (3 μM) (androgen receptor (AR)): 20.4%
COc1cc(C)c2occ(/C(C)=N/O)c2c1 [Compound 14017] | – | 41.6 | – | – | –
Clc1scc(-c2csc(N3CCOCC3)n2)c1Cl [Compound 14462] | – | – | – | 0.11 | –
COc1cccc(-c2csc(-c3ccccn3)n2)c1 [Compound 14343] | – | – | – | – | % Inhibition (3 μM) (androgen receptor (AR)): 16.12%
CCSc1ccc(-c2cc(C)nc(N)n2)cc1 [Compound 14055] | – | 10 | – | – | –
Cc1cccn1-c1csc(N2CCOCC2)n1 [Compound 14410] | – | – | – | 28.4 | –
c1ccc2c(c1)ncn2-c1csc(N2CCOCC2)n1 [Compound 14509] | – | – | – | – | pIC50 (androgen receptor (AR)): 5.93
COc1ccc(-c2nc(-c3ccccc3)cs2)cc1 [Compound 14419] | – | – | – | – | % Inhibition (3 μM) (androgen receptor (AR)): 119.36%; pIC50 (androgen receptor (AR)): 5.21
Fc1ccc(-c2csc(N3CCNCC3)n2)cc1 [Compound 14340] | – | – | – | – | % Inhibition (3 μM) (androgen receptor (AR)): 16.12%
